Results taken from US12389908B2, “Fungicide composition for controlling Zymoseptoria infection in plant” (priority 2019, dated 2025).

What was measured:
[1] = system: Zymoseptoria tritici strain Zt Tri-R6; assay: Preventive treatment of wheat plants, inoculated leaf fragments (detached leaf test), necrosis length / AUDPC; type: in vivo
Protocol: A study was conducted to evaluate efficacy of multi-site fungicide (Captan) on zymoSeptoria tritici pathogen. Winter wheat plants cv. Alixan (Limagrain) at the BBCH 12 growth stage were treated with a hand sprayer at 2 bars calibrated to deliver the equivalent of 200 L/ha. Three replicates (pots) of 6 wheat plants each are used for all conditions tested. After treatment, wheat plants are left to dry at room temperature for 1 hour and then placed in a climatic chamber.
Twenty-four hours after treatments, 5-cm fragments of the first leaf are cut and transferred on 90-mm diameter Petri dish containing water agar supplemented with an anti-senescing compound (7 leaf fragments per Petri dish). Leaf fragments are then inoculated with a paint brush dipped into the calibrated pycnospores suspension of Z. tritici strain Mg Tri-R6.
After inoculation, Petri dishes are placed in adapted climatic conditions.
Disease assessments are carried out 21 and 28 days post inoculation (dpi) by measuring the length of the necrosis and the total length of the leaf fragment. The intensity of infection is then determined in percent of the total length of the leaf fragment. The values of the intensity of infection obtained are compared by means of the Newman and Keuls test (XL-Stat software, Addinsoft Ltd.).
The most commonly used method for estimating the Area Under the Disease Progress Curve (AUDPC), the trapezoidal method, is performed. The fungicide efficacy was determined from the intensity of infection and the AUDPC values and expressed in percent of the untreated control.

[2] = system: Speckled leaf blotch of wheat (Spetoria Titrici); assay: Field trials (Trial 1 and Trial 2) in winter wheat, control of speckled leaf blotch; type: in vivo, Zymoseptoria tritici
Protocol: Two trials were conducted in Winter wheat/Triticum aestivum (winter), variety ADVISOR, to evaluate the control of Speckled leaf blotch of wheat (Spetoria Titrici) as primary target. All products were applied with a knapsack sprayer using compressed air as the propellant. The sprayer was equipped with a boom and flat fan nozzles, and calibrated to apply a homogeneous spray volume at a constant pressure.
Application method: Application A: At the beginning of disease attack and Application B: Renew the application when new disease attack occurs in the best plots, 3 weeks after application A (at least 2 weeks, at the most 4 weeks).

[3] = Dose 1600 g a.i./ha, strain Zt Tri-R6, wheat leaf fragments treated preventively

O=C1C2CC=CCC2C(=O)N1SC(Cl)(Cl)Cl (stereo not drawn) [Captan] was tested, and the efficiency ([1]; 800 g/ha, strain Zt Tri-R6) was 77%, the “inhibition of the development of the Z. tritici strain into wheat leaf tissues” value ([1]; 1600, 2400 and 3200 g/ha) was “almost completely inhibits” and the “Fungicide efficacy against Zymoseptoria tritici (% Control)” value (“Fungicide efficacy … (% Control)” for short) ([1]; Dose 800 g a.i./ha, strain Zt Tri-R6, wheat leaf fragments treated preventively) was 77.9 % Control. For the same compound, the “Fungicide efficacy … (% Control)” value [1, 3] was 96.0 % Control, the “Fungicide efficacy … (% Control)” value ([1]; Dose 2400 g a.i./ha, strain Zt Tri-R6, wheat leaf fragments treated preventively) was 97.0 % Control and the “Fungicide efficacy … (% Control)” value ([1]; Dose 3200 g a.i./ha, strain Zt Tri-R6, wheat leaf fragments treated preventively) was 100 % Control. The “effectiveness for controlling Septoria tritici” value ([1]; conclusion from Tables 1 to 5) was “effective for controlling Septoria tritici”, the “fungicidal efficacy against Zymoseptoria tritici strain Zt Tri-R6” value ([1]; lowest rate of 800 g/ha) was “very good fungicidal efficacy” and the “Fungicide efficacy … (% Control)” value ([2]; Trial 1, winter wheat field, rate 1.8 L/ha, 28 DA-B (first 28 DA-B column)) was 32.4 % Control. For the same compound, the “Fungicide efficacy … (% Control)” value ([2]; Trial 1, winter wheat field, rate 1.8 L/ha, 28 DA-B (second 28 DA-B column)) was 24.5 % Control, the “Fungicide efficacy … (% Control)” value ([2]; Trial 2, winter wheat field, rate 1.8 L/ha, 26 DA-A) was 41.3 % Control and the “Fungicide efficacy … (% Control)” value ([2]; Trial 2, winter wheat field, rate 1.8 L/ha, 40 DA-A (first 40 DA-A column)) was 31.9 % Control. The “Fungicide efficacy … (% Control)” value ([2]; Trial 2, winter wheat field, rate 1.8 L/ha, 40 DA-A (second 40 DA-A column)) was 25.7 % Control.

N#Cc1c(Cl)c(Cl)c(Cl)c(C#N)c1Cl [Chlorothalonil] was tested, and the “Fungicide efficacy … (% Control)” value ([1]; Dose 750 g a.i./ha, strain Zt Tri-R6, wheat leaf fragments treated preventively) was 69.2 % Control.

CC1COC(Cn2cncn2)(c2ccc(Oc3ccc(Cl)cc3)cc2Cl)O1 (stereo not drawn) [Difenoconazole] was tested, and the “Fungicide efficacy … (% Control)” value ([1]; Table 2, from AUDPC values, dose 25 g a.i./ha, strain Zt Tri-R6) was 81.8 % Control.

In the case of OC(Cc1ccccc1Cl)(Cn1nc[nH]c1=S)C1(Cl)CC1 (stereo not drawn) [Prothioconazole], the “Fungicide efficacy against Zymoseptoria tritici (%)” value ([1]; Table 3, from AUDPC values, dose 30 g a.i./ha, strain Zt Tri-R6) is reported as 68.2%, the “Fungicide efficacy against Zymoseptoria tritici (%)” value ([1]; Table 4, from AUDPC values, dose 22.5 g a.i./ha, strain Zt Tri-R6) is reported as 62.9% and the “Fungicide efficacy … (% Control)” value ([2]; Trial 1, winter wheat field, rate 0.31 L/ha, 28 DA-B (first 28 DA-B column)) is reported as 31.2 % Control. The “Fungicide efficacy … (% Control)” value ([2]; Trial 1, winter wheat field, rate 0.31 L/ha, 28 DA-B (second 28 DA-B column)) was 28.8 % Control, the “Fungicide efficacy … (% Control)” value ([2]; Trial 2, winter wheat field, rate 0.31 L/ha, 26 DA-A) was 42.3 % Control and the “Fungicide efficacy … (% Control)” value ([2]; Trial 2, winter wheat field, rate 0.31 L/ha, 40 DA-A (first 40 DA-A column)) was 40.7 % Control. For the same compound, the “Fungicide efficacy … (% Control)” value ([2]; Trial 2, winter wheat field, rate 0.31 L/ha, 40 DA-A (second 40 DA-A column)) was 58.4 % Control.

With S1SSSSSSS1 [sulphur] the “Fungicide efficacy … (% Control)” value ([1]; Dose 4200 g a.i./ha, strain Zt Tri-R6, wheat leaf fragments treated preventively) was 65.8 % Control.

In the case of Mancozeb, the “Fungicide efficacy … (% Control)” value [1, 3] is reported as 21.0 % Control.
